Results on 12 molecules are retold here after patent publication US20210330611A1, “THERAPY FOR NEUROLOGICAL DISEASES/DISORDERS” (priority 2020, published 2021).

The test system of data set [1] is LPS-induced microglia activation. The data set is described as follows: Image-based assay of LPS-induced microglia activation (HTS and dose response). Format: cell-based, rat. Conditions: for inhibition at 10 µM: Rattus norvegicus, Microglia, read-out: LPS % inhibition.
In data set [2] the test system is fibrin- and LPS-induced microglia activation. The data set can be described thus: cells. Format: cell-based, rat.
Data set [3] relates to fibrin-induced microglia activation. The data set is described as follows: Image-based assay of fibrin-induced microglia activation (HTS and dose response). The class given is cell-based, rat. Conditions: for inhibition at 10 µM: Rattus norvegicus, Microglia, read-out: Fibrin % inhibition.
Data set [4] relates to primary rat microglia. The data set is described as follows: Cell toxicity (dead cells, size <150 μm2) in LPS assay.
Data set [5] has as its system primary rat microglia. The data set can be described thus: Cell toxicity (dead cells, size <150 μm2) in coated fibrin (cFib) assay.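 Note: share of dead cells sized under 150 µm2 at 10 µM in fibrin-stimulated microglia HTS.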
Setting [6] is: primary HTS, 10 μM, LPS-stimulated primary microglia.
Where [7] appears, read: primary HTS, 10 μM, fibrin-stimulated primary microglia.
[8] abbreviates: primary HTS, 10 μM, LPS assay, dead cells size <150 μm2.
Setting [9] is: primary HTS, 10 μM, fibrin assay, dead cells size <150 μm2.
Setting [10] is: 48 h, primary microglia HTS, LPS stimulation, increased cell size (>800 μm^2) as marker of activation.
Where [11] appears, read: quadrant by fibrin and LPS inhibition in HTS of 1907 compounds.
The mark [12] stands for this setting: primary microglia HTS, fibrin stimulation, increased cell size (>800 μm^2) as marker of activation.
Setting [13] is: primary microglia HTS, LPS stimulation, decreased size (<150 μm^2) as marker of toxicity.
Where [14] appears, read: primary microglia HTS, fibrin stimulation, decreased size (<150 μm^2) as marker of toxicity.
Setting [15] is: 48 h, primary microglia HTS, LPS stimulation, activation = cell size >800 μm2.
[16] abbreviates: primary microglia HTS, fibrin stimulation, activation = cell size >800 μm2.
The mark [17] stands for this setting: primary microglia HTS, LPS stimulation, toxicity = cell size <150 μm2.
[18] abbreviates: primary microglia HTS, fibrin stimulation, toxicity = cell size <150 μm2.

Where two headings read alike, the source gives them in different places.

One may read the inhibition as the drop in the measured response relative to a control, in per cent. For `COC(=O)N/N=C/c1c[n+]([O-])c2ccccc2[n+]1[O-]` [Carbadox], the inhibition at 10 µM in data set [1] (setting [6]) is 11%; in data set [3] (setting [7]), -2%. For the same molecule, the “Quadrant (FIG. 5b)” value in data set [2] (primary HTS, 10 μM) is listed as “Q4”. The “LPS % cell toxicity” value in the data set on primary rat microglia [4] (setting [8]) came to 1%. In addition, the “Fibrin % cell toxicity” value in the data set with primary rat microglia [5] (setting [9]) was 1%.

Take `CC[N+](C)(CC)CCOC(=O)C(O)(c1ccccc1)C1CCCCC1` (stereo not drawn) [Oxyphenonium]: the inhibition at 10 µM in data set [1] (setting [10]) was 30%; in data set [3] (setting [12]), -14%. Moreover, the “Quadrant (FIG. 5b)” value in data set [2] (setting [11]) was “Q4”. For the same molecule, the “LPS % cell toxicity” value with primary rat microglia [4] (setting [13]) is 1%. Moreover, the “Fibrin % cell toxicity” value in the data set on primary rat microglia [5] (setting [14]) worked out at 1%.

Take `CCN(CCCCOC(=O)c1ccc(OC)c(OC)c1)C(C)Cc1ccc(OC)cc1` (stereo not drawn) [Mebeverine]: the inhibition at 10 µM is 7% in data set [1] (setting [10]) and -11% in data set [3] (setting [12]). In addition, the “Quadrant (FIG. 5b)” value in data set [2] (setting [11]) is given as “Q4”. Besides, the “LPS % cell toxicity” value in the data set on primary rat microglia [4] (setting [13]) amounted to 0%. Also, in the data set with primary rat microglia [5] (setting [14]), the “Fibrin % cell toxicity” value is 0%.

Regarding `CCCCC(=O)N(Cc1ccc(-c2ccccc2-c2nnn[nH]2)cc1)[C@H](C(=O)O)C(C)C` [Valsartan], the inhibition at 10 µM in data set [1] is 12%; in data set [3], -17%. In addition, the “Quadrant (FIG. 5b)” value in data set [2] (HTS of 1907 compounds, quadrant by fibrin and LPS inhibition) is given as “Q4”. Besides, the “LPS % cell toxicity” value in the data set on primary rat microglia [4] (primary microglia HTS, 10 μM, LPS assay, cell size <150 μm^2 as marker of toxicity) came out at 0%. Besides, the “Fibrin % cell toxicity” value with primary rat microglia [5] (primary microglia HTS, 10 μM, fibrin assay, cell size <150 μm^2 as marker of toxicity) is on record as 0%.

With `O=C(O)c1ccccc1OP(=O)(O)O` [Fosfosal], the inhibition at 10 µM in data set [1] (setting [15]) is 16%; in data set [3] (setting [16]), -29%. The “Quadrant (FIG. 5b)” value in data set [2] (setting [11]) is “Q4”. Also, the “LPS % cell toxicity” value in the data set with primary rat microglia [4] (setting [17]) was 1%. In the data set on primary rat microglia [5] (setting [18]), the “Fibrin % cell toxicity” value was 0%.

In the case of `CO[C@@]1(NC(=O)C2SC(=C(C(N)=O)C(=O)O)S2)C(=O)N2C(C(=O)O)=C(CSc3nnnn3C)CS[C@@H]21` (stereo partly drawn) [Cefotetan], the figures for the inhibition at 10 µM in data set [1] (setting [6]) and in data set [3] (setting [7]) were -5% and -11%, respectively. Besides, the “Quadrant (FIG. 5b)” value in data set [2] (primary HTS, 10 μM) is on record as “Q4”. In the data set on primary rat microglia [4] (setting [8]), the “LPS % cell toxicity” value was determined as 0%. The “Fibrin % cell toxicity” value in the data set with primary rat microglia [5] (setting [9]) stood at 0%.

Regarding `NC(=O)N/N=C/c1ccc([N+](=O)[O-])o1` [Nitrofural], the inhibition at 10 µM in data set [1] (setting [10]) was 1%; in data set [3] (setting [12]), -14%. For the same molecule, the “Quadrant (FIG. 5b)” value in data set [2] (setting [11]) is reported as “Q4”. Further, the “LPS % cell toxicity” value with primary rat microglia [4] (setting [13]) worked out at 0%. Moreover, the “Fibrin % cell toxicity” value with primary rat microglia [5] (setting [14]) was found to be 0%.

With `Cc1cc(O)c(C(=O)N[C@@H](C(=O)N[C@@H]2C(=O)N3C(C(=O)O)=C(CSc4nnnn4C)CS[C@H]23)c2ccc(O)cc2)cn1` [Cefpiramide], the results for the inhibition at 10 µM in data set [1] (setting [6]) and in data set [3] (setting [7]) were 20% and 12%, respectively. For the same molecule, the “Quadrant (FIG. 5b)” value in data set [2] (primary HTS, 10 μM) is on record as “Q4”. Further, the “LPS % cell toxicity” value in the data set on primary rat microglia [4] (setting [8]) worked out at 0%. In the data set on primary rat microglia [5] (setting [9]), the “Fibrin % cell toxicity” value was 1%.

Take `Cc1cc(C(C#N)c2ccc(Cl)cc2)c(Cl)cc1NC(=O)c1cc(I)cc(I)c1O` (stereo not drawn) [Closantel]: the inhibition at 10 µM in data set [1] (setting [6]) is 5%; in data set [3] (setting [7]), -9%. Further, in data set [2] (primary HTS, 10 μM), the “Quadrant (FIG. 5b)” value is “Q4”. For the same molecule, the “LPS % cell toxicity” value in the data set on primary rat microglia [4] (setting [8]) came out at 0%. Besides, the “Fibrin % cell toxicity” value in the data set with primary rat microglia [5] (setting [9]) worked out at 0%.

As for `C[C@@H]1C[C@H]2[C@@H]3CCC4=CC(=O)C=C[C@]4(C)[C@@]3(F)[C@@H](O)C[C@]2(C)[C@H]1C(=O)CO` [Desoxymetasone], the LPS % inhibition in data set [1] (primary microglia HTS, LPS stimulation, increased cell size (>800 μm^2) as marker of activation) was determined as 105%. The “Quadrant (FIG. 5b)” value in data set [2] (setting [11]) is “Q2”. The Fibrin % inhibition in data set [3] (setting [12]) was 108%. Further, in the data set on primary rat microglia [4] (setting [13]), the “LPS % cell toxicity” value turned out to be 3%. Also, the “Fibrin % cell toxicity” value in the data set with primary rat microglia [5] (setting [14]) stood at 3%.

As for `NC(=O)CCCCC1CCSS1` (stereo not drawn) [Lipoamide], the inhibition at 10 µM was 8% in data set [1] (setting [15]) and -18% in data set [3] (setting [16]). In addition, the “Quadrant (FIG. 5b)” value in data set [2] (setting [11]) is given as “Q4”. Also, in the data set on primary rat microglia [4] (setting [17]), the “LPS % cell toxicity” value amounted to 0%. Moreover, the “Fibrin % cell toxicity” value with primary rat microglia [5] (setting [18]) was 0%.

In the case of `OC[C@H]1O[C@@H](O[C@@H]2[C@@H](CO)OC(O)(CO)[C@H]2O)[C@H](O)[C@@H](O)[C@H]1O` (mixture of isomers) [Lactulose], the inhibition at 10 µM in data set [1] (setting [15]) is 4%; in data set [3] (setting [16]), -14%. Moreover, the “Quadrant (FIG. 5b)” value in data set [2] (setting [11]) was “Q4”. For the same molecule, the “LPS % cell toxicity” value with primary rat microglia [4] (setting [17]) stood at 0%. In the data set with primary rat microglia [5] (setting [18]), the “Fibrin % cell toxicity” value came out at 0%.
